Assay results taken from PubChem BioAssay AID1259407 (Chemical Carcinogenesis Research Information System (CCRIS), 2018).
Active and inactive are the calls of the source. The rule behind the calls is not given here.

Test system: CCRIS mutagenicity, Ames/micronucleus/aberration tests
Assay: CCRIS mutagenicity studies
Conditions: Test System: AMES SALMONELLA TYPHIMURIUM
[1] = Strain/Indicator: TA98, Metabolic Activation: NONE, Method: PREINCUBATION

Row | Compound | mutagenic call (Strain/Indicator: TA98(1,8-DNP6), Metabolic Activation: NONE, Method: PREINCUBATION) | mutagenic call (Strain/Indicator: TA98(1,8-DNP6), Metabolic Activation: NONE, Method: SUSPENSION) | mutagenic call (Strain/Indicator: TA98(1,8-DNP6), Metabolic Activation: RAT, LIVER, S-9, PCB (5%), Method: PREINCUBATION) | mutagenic call (Strain/Indicator: TA98(NR), Metabolic Activation: NONE, Method: PREINCUBATION) | mutagenic call (Strain/Indicator: TA98(NR), Metabolic Activation: NONE, Method: SUSPENSION) | mutagenic call (Strain/Indicator: TA98(NR), Metabolic Activation: RAT, LIVER, S-9 (10%), Method: PREINCUBATION) | mutagenic call (Strain/Indicator: TA98(NR), Metabolic Activation: RAT, LIVER, S-9, 3-METHYLCHOLANTHRENE (10%), Method: PREINCUBATION) | mutagenic call (Strain/Indicator: TA98(NR), Metabolic Activation: RAT, LIVER, S-9, BETA-NAPHTHOFLAVONE (10%), Method: PREINCUBATION) | mutagenic call (Strain/Indicator: TA98(NR), Metabolic Activation: RAT, LIVER, S-9, PCB (5 OR 10%), Method: PREINCUBATION) | mutagenic call (Strain/Indicator: TA98(NR), Metabolic Activation: RAT, LIVER, S-9, PHENOBARBITAL (10%), Method: PREINCUBATION) | mutagenic call [1] | mutagenic call (Strain/Indicator: TA98, Metabolic Activation: NONE, Method: SUSPENSION) | mutagenic call (Strain/Indicator: TA98, Metabolic Activation: RAT, LIVER, S-9, PCB (5%), Method: PREINCUBATION) | mutagenic call (Strain/Indicator: TA98, Metabolic Activation: RAT, LIVER, S-9, PCB, Method: SUSPENSION) | mutagenic call (Strain/Indicator: TA100, Metabolic Activation: NONE, Method: PREINCUBATION) | mutagenic call (Strain/Indicator: TA100, Metabolic Activation: NONE, Method: SUSPENSION) | mutagenic call (Strain/Indicator: TA100, Metabolic Activation: RAT, LIVER, S-9, PCB (5%), Method: PREINCUBATION) | mutagenic call (Strain/Indicator: TA100, Metabolic Activation: RAT, LIVER, S-9, PCB, Method: SUSPENSION)
1 | O=[N+]([O-])c1ccc2oc3ccc([N+](=O)[O-])cc3c2c1 | active; positive | active; positive | active; positive | inactive; negative | inactive; negative | active; positive | active; positive | active; positive | active; positive | active; positive | active; positive | active; positive | active; positive | active; positive | inactive; negative | inactive; negative | inactive; negative | inactive; negative
2 | Cc1cccc2cc([N+](=O)[O-])ccc12 |  |  |  |  |  |  |  |  |  |  | active; positive |  |  |  |  |  |  | 
